Source: patent US12319655B2, “RAF kinase inhibitors and methods of use thereof” (Deciphera Pharmaceuticals, LLC, priority 2021, dated 2025)

Legend:
[1] = target: B-Raf kinase (SEQ. ID NO: 2) (Homo sapiens (Human), UniProt P15056); experiment: Biochemical Assay for B-Raf (1); conditions: Table J, assay version (1); read-out: BRAF (1) IC50
Procedure, shortened: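 Continuous PK/LDH-coupled NADH oxidation assay, A340 read for 6 h at 30° C., with 0.13 nM B-Raf, 30.1 nM MEK substrate and 1 mM ATP in Tris pH 7.5, MgCl2, DTT, detergents, 1% DMSO. Rate taken from 4–5 h window; percent inhibition vs no-compound and known-inhibitor controls; four-parameter fit gives IC50.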

[2] = target: C-Raf kinase (SEQ. ID NO: 3) (Homo sapiens (Human), UniProt P04049, Y340D/Y341D); experiment: Biochemical Assay for C-Raf (1); conditions: Table J, assay version (1); read-out: CRAF (1) IC50
Chain of C-Raf kinase (SEQ. ID NO: 3) (P04049 307-648 Y340D/Y341D): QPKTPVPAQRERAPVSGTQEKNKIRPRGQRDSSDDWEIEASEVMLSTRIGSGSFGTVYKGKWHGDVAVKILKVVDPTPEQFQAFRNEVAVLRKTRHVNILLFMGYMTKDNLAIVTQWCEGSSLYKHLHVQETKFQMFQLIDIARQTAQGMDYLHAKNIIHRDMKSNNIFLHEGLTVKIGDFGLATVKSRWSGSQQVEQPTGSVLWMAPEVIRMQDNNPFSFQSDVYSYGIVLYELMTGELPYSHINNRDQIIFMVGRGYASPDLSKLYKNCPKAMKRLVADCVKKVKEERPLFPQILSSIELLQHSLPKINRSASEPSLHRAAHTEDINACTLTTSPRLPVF
Procedure, shortened: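 Coupled pyruvate kinase/LDH assay tracking NADH oxidation at 340 nm, with 0.43 nM C-Raf, 30.1 nM MEK and 1 mM ATP in pH 7.5 Tris buffer (15 mM MgCl2, 1% DMSO final). Read continuously for 6 h at 30 °C, rate taken from the 4–5 h window. IC50 from four-parameter fit of percent inhibition.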

[3] = tested on: A375 cells; experiment: A375 Cell Proliferation Assay (1); format: cell-based; conditions: Homo sapiens, A-375
Procedure, shortened: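 Resazurin fluorescence (excitation 540 nm, emission 600 nm, after a further 5-6 h) gave IC50s from triplicate compound dilution series.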

[4] = tested on: Miapaca-2 cells; experiment: MiaPaca-2 Cell Proliferation Assay (1); format: cell-based; conditions: Homo sapiens, MIA PaCa-2, single agent, read-out: MiaPaca2 (1) IC50
Protocol: MiaPaca-2 Cell Proliferation Assay (1)
Miapaca-2 cells (catalog #CRL-1420) are obtained from the American Type Culture Collect (ATTC, Manassas, VA). Briefly, cells were grown in DMEM supplemented with 10% characterized fetal bovine serum (Invitrogen, Carlsbad, CA), 2.5% New Zealand sourced horse serum and 1% Penicillin/Streptomycin/L-Glutamine at 37° C., 5% CO2, and 95% humidity. Cells are expanded until reaching 70-95% confluency at which point they are sub-cultured or harvested for assay use. A serial dilution of test compound is dispensed into a 96-well black clear bottom plate in triplicate. Three thousand cells are added per well in 200 μL complete growth medium in the 96-well plate. Plates are incubated for 67-72 h at 37° C., 5% CO2, and 95% humidity. At the end of the incubation, 40 μL of a 440 μM solution of resazurin (Sigma, St. Louis, MO) in PBS is added to each well of the plate and plates are incubated for an additional 5-6 h at 37° C., 5% CO2, and 95% humidity. Plates are read on a Synergy2 or equivalent reader (Biotek, Winooski VT) using an excitation of 540 nm and an emission of 600 nm. Data is analyzed using Prism software (GraphPad, San Diego, CA) to calculate IC50 values.

Chain of B-Raf kinase (SEQ. ID NO: 2) (P15056 416-766): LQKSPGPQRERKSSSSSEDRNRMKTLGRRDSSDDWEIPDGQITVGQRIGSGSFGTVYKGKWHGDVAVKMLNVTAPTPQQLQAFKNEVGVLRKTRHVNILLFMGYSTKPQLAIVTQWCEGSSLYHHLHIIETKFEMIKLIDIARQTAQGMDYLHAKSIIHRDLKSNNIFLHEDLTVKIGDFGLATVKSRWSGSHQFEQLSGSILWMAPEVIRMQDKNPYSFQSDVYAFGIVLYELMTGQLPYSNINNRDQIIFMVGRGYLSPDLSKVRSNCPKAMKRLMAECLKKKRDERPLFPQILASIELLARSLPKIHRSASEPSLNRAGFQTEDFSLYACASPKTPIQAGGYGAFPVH

Row | IC50 [1] [nM] | IC50 [2] [nM] | IC50 [3] [nM] | IC50 [4] [nM] | Structure (SMILES)
1 | ≤ 100 | ≤ 100 | 100 to 500 | 1000 to 10000 | Cc1ccc(NC(=O)c2ccnc(C(F)(F)F)c2)cc1-c1cncc(-c2ccnc(NC=O)c2)n1 [Example 123]
2 | ≤ 100 | ≤ 100 | ≤ 100 | 1000 to 10000 | Cc1ncc(NC(=O)c2ccnc(C(C)(C)C#N)c2)cc1-c1cccc(-c2cc(NC(=O)C3CC3)ncn2)c1 [Example 181]
3 | ≤ 100 | ≤ 100 | 100 to 500 | 1000 to 10000 | CNC(=O)c1cc(-c2cc(-c3cc(NC(=O)c4ccnc(C5(C#N)CC5)c4)ccc3C)ncn2)ccn1 [Example 178]
4 | 100 to 500 | ≤ 100 | 1000 to 10000 | 1000 to 10000 | Cc1ncc(NC(=O)c2ccnc(C(F)(F)F)c2)cc1-c1cccc(-c2ccnc(N)c2)c1 [Example 94]
5 | ≤ 100 | ≤ 100 | 1000 to 10000 |  | COCC(=O)Nc1cc(-c2cccc(-c3cc(NC(=O)c4ccnc(C(F)(F)F)c4)cnc3C)n2)ccn1 [Example 130]
6 | 100 to 500 | ≤ 100 | 100 to 500 | 1000 to 10000 | CNC(=O)c1cc(-c2ccnc(-c3cc(NC(=O)c4ccnc(C(C)(C)C#N)c4)ccc3C)n2)ccn1 [Example 177]
7 | 100 to 500 | ≤ 100 | 500 to 1000 | 1000 to 10000 | CC(=O)Nc1nccc(-c2cccc(-c3cc(NC(=O)c4ccnc(C(F)(F)F)c4)ccc3C)c2)c1C#N [Example 132]
8 | ≤ 100 | ≤ 100 | 500 to 1000 | 1000 to 10000 | Cc1ccc(NC(=O)c2ccnc(C(F)(F)F)c2)cc1-c1cncc(-c2ccnc(NC(=O)CC#N)c2)n1 [Example 98]
9 | 100 to 500 | ≤ 100 | 1000 to 10000 | 1000 to 10000 | Cc1ccc(NC(=O)c2ccnc(C(C)(C)C#N)c2)cc1-c1cncc(-c2ccnc(N)c2)n1 [Example 141]
10 | ≤ 100 | ≤ 100 | 100 to 500 | 1000 to 10000 | CC(=O)Nc1cc(-c2nccc(-c3cc(NC(=O)c4ccnc(C5CC5)c4)ccc3C)n2)ccn1 [Example 152]
11 | ≤ 100 | ≤ 100 | ≤ 100 | 500 to 1000 | CC(=O)Nc1cc(-c2cncc(-c3cc(NC(=O)c4ccnc(C(C)(C)C#N)c4)ccc3C)n2)ccn1 [Example 140]
12 | ≤ 100 | ≤ 100 | 1000 to 10000 | 1000 to 10000 | COc1cc(C(=O)Nc2ccc(C)c(-c3cncc(-c4ccnc(NC(C)=O)c4)n3)c2)ccc1F [Example 120]
13 | 100 to 500 | 100 to 500 | ≤ 100 | 1000 to 10000 | CNC(=O)c1cc(-c2cc(-c3cc(NC(=O)c4ccnc(C(C)(C)C#N)c4)cnc3C)ccn2)ccn1 [Example 158]
14 | ≤ 100 | ≤ 100 | 100 to 500 | 1000 to 10000 | CNC(=O)c1cc(-c2cncc(-c3cc(NC(=O)c4ccnc(C5(C#N)CC5)c4)ccc3C)n2)ccn1 [Example 138]
15 | ≤ 100 | ≤ 100 | 100 to 500 | 1000 to 10000 | Cc1ccc(NC(=O)c2ccnc(C(C)(C)C#N)c2)cc1-c1cccc(-c2ncnc3c2CC(=O)N3)c1 [Example 109]
16 | ≤ 100 | ≤ 100 | 100 to 500 | 1000 to 10000 | CC(=O)Nc1cc(-c2cc(-c3cc(NC(=O)c4ccnc(C(F)(F)F)c4)ccc3C)cc(C)n2)ccn1 [Example 5]
17 | ≤ 100 | ≤ 100 | 500 to 1000 | 1000 to 10000 | Cc1ccc(NC(=O)c2ccnc(C(C)(C)C#N)c2)cc1-c1ccnc(-c2ccnc3c2CC(=O)N3)n1 [Example 101]
18 | 100 to 500 | 100 to 500 | 1000 to 10000 |  | Cc1ccc(NC(=O)c2ccnc(C(C)(C)C#N)c2)cc1-c1cccc(-c2ccnc3[nH]ccc23)c1 [Example 133]
19 | ≤ 100 | ≤ 100 | 100 to 500 | 1000 to 10000 | CC(=O)Nc1cc(-c2cc(-c3cc(NC(=O)c4ccnc(C(F)(F)F)c4)c(F)cc3C)cc(C)n2)ccn1 [Example 4]

Row | IC50 [1] [nM] | IC50 [2] [nM] | IC50 [3] [nM] | IC50 [4] [nM] | Structure (SMILES)
20 | ≤ 100 | ≤ 100 | ≤ 100 | 1000 to 10000 | CC(=O)Nc1cc(-c2ccnc(-c3cc(NC(=O)c4ccnc(C(C)(C)C#N)c4)ccc3C)n2)ccn1 [Example 103]
21 | ≤ 100 | ≤ 100 | 100 to 500 | 1000 to 10000 | CNC(=O)c1cc(-c2nccc(-c3cc(NC(=O)c4ccnc(C5(C#N)CC5)c4)ccc3C)n2)ccn1 [Example 175]
22 | ≤ 100 | ≤ 100 | 1000 to 10000 | 1000 to 10000 | Cc1ccc(NC(=O)c2ccnc(C(F)(F)F)c2)cc1-c1ccnc(-c2ccnc(N)c2)n1 [Example 122]
23 | ≤ 100 | ≤ 100 | ≤ 100 | 1000 to 10000 | Cc1ccc(NC(=O)c2ccnc(C3CC3)c2)cc1-c1cncc(-c2ccnc(NC(=O)C3CC3)c2)n1 [Example 184]
24 | 100 to 500 | ≤ 100 | 1000 to 10000 | 1000 to 10000 | CC(=O)Nc1cc(-c2cc(-c3cc(NC(=O)c4ccnc(C(F)(F)F)c4)ccc3C)cc(=O)n2C)ccn1 [Example 11]
25 | 100 to 500 | ≤ 100 | 500 to 1000 | 1000 to 10000 | CNc1cc(-c2cncc(-c3cc(NC(=O)c4ccnc(C(C)(C)C#N)c4)ccc3C)n2)ccn1 [Example 173]
26 | 100 to 500 | ≤ 100 | 100 to 500 | 1000 to 10000 | CC(=O)Nc1cc(-c2cc(-c3cc(NC(=O)c4ccnc(C(C)(C)C#N)c4)ccc3C)cn(C)c2=O)ccn1 [Example 113]
27 | 100 to 500 | ≤ 100 | 1000 to 10000 | 1000 to 10000 | COCCNc1cc(-c2cccc(-c3cc(NC(=O)c4ccnc(C(F)(F)F)c4)ccc3C)c2)ncn1 [Example 156]
28 | ≤ 100 | ≤ 100 | ≤ 100 | 1000 to 10000 | Cc1ccc(NC(=O)c2cccc(C(C)(C)C#N)c2)cc1-c1cccc(-c2cc(NC(=O)C3CC3)ncn2)c1 [Example 174]
29 | 100 to 500 | 100 to 500 | 1000 to 10000 | 1000 to 10000 | CC(=O)Nc1cc(-c2cc(-c3cc(NC(=O)c4ccnc(C(F)(F)F)c4)ccc3C)cn(CCO)c2=O)ccn1 [Example 102]
30 | 500 to 1000 | 100 to 500 | 1000 to 10000 | 1000 to 10000 | Cc1ncc(NC(=O)c2ccnc(C(C)(C)C#N)c2)cc1-c1cccc(-c2ccnc3[nH]cnc23)c1 [Example 111]
31 | ≤ 100 | ≤ 100 | ≤ 100 | 1000 to 10000 | CC(=O)Nc1cc(-c2nccc(-c3cc(NC(=O)c4ccnc(C(C)(C)C#N)c4)ccc3C)n2)ccn1 [Example 118]
32 | 100 to 500 | ≤ 100 | 500 to 1000 | 1000 to 10000 | CNC(=O)c1cc(-c2cccc(-c3cc(NC(=O)c4ccnc(C(F)(F)F)c4)ccc3C)c2)ncn1 [Example 106]
33 | 100 to 500 | 100 to 500 | 100 to 500 | 1000 to 10000 | Cc1ccc(NC(=O)c2ccnc(C(C)(C)C#N)c2)cc1-c1ccnc(-c2ccnc(C(=O)NC3CC3)c2)c1 [Example 162]
34 | 100 to 500 | 100 to 500 | ≤ 100 |  | CNC(=O)c1cc(-c2cc(-c3cc(NC(=O)c4ccnc(C(C)(C)C#N)c4)ccc3C)cc(C3CC3)n2)ccn1 [Example 163]
35 | ≤ 100 | ≤ 100 | ≤ 100 | 1000 to 10000 | CCOc1cc(-c2cc(NC(=O)c3ccnc(C(F)(F)F)c3)ccc2C)cc(-c2ccnc(NC(C)=O)c2)n1 [Example 8]
36 | ≤ 100 | ≤ 100 | 100 to 500 | 1000 to 10000 | Cc1ccc(NC(=O)c2ccnc(C(C)(C)C#N)c2)cc1-c1cccc(-c2ccnc3[nH]ncc23)c1 [Example 134]
37 | 100 to 500 | ≤ 100 | 100 to 500 | 1000 to 10000 | CCC(=O)Nc1cc(-c2cccc(-c3cc(NC(=O)c4ccnc(C(C)(C)C#N)c4)cnc3C)n2)ccn1 [Example 182]
38 | 100 to 500 | 100 to 500 | ≤ 100 |  | CC(=O)Nc1cc(-c2cc(-c3cc(NC(=O)c4ccnc(C(F)(F)F)c4)c(F)cc3C)cc(OC(C)C)n2)ccn1 [Example 10]
